Measured values reported in the Kinase Knowledgebase extract (Sharma et al. 2016).

How the values were obtained:
EGFR (human) = EGFR (human) (UniProt P00533); conditions: 3t3
EGFR = EGFR (UniProt P00533)
Sequence of EGFR (P00533 whole entry, looked up): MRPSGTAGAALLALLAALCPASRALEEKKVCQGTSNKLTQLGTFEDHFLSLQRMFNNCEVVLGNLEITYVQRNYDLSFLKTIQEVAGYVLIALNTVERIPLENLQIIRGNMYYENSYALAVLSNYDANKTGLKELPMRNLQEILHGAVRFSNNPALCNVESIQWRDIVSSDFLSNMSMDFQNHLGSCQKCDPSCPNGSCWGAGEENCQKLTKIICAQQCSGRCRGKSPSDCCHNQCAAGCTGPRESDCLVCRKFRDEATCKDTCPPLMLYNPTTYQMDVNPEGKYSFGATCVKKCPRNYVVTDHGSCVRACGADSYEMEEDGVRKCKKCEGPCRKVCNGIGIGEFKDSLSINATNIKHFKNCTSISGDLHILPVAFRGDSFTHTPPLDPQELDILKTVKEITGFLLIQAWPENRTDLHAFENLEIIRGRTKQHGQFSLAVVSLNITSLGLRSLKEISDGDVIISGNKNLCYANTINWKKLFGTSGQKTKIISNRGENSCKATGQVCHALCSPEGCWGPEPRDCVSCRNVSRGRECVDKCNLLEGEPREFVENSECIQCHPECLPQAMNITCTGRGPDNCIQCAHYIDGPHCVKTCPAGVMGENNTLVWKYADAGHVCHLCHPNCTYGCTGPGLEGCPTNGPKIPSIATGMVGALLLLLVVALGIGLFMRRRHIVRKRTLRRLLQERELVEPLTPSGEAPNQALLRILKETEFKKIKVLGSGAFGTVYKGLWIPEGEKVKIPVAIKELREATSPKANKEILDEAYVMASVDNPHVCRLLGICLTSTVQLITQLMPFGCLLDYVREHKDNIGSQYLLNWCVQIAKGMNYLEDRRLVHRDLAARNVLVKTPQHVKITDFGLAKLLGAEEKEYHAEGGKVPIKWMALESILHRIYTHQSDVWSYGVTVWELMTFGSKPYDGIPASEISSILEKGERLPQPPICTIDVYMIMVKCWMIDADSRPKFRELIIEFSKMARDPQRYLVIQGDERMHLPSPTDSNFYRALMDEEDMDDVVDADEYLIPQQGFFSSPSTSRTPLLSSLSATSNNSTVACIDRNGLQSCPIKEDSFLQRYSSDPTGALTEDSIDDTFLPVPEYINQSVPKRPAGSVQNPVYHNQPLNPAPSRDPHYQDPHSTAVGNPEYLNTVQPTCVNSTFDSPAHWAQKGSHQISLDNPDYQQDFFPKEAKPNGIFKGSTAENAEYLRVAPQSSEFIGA

Sequence of EGFR (human) (P00533 whole entry, looked up): as above

Structure (SMILES)	IC50 (EGFR (human)) [µM]	IC50 (EGFR) [µM]
COc1ccc(-c2ccc3c(c2)NC(=O)/C3=C\c2[nH]cc(CCC(=O)O)c2C)cc1	36.8	
Cc1[nH]c(/C=C2/C(=O)Nc3ccc(S(=O)(=O)N(C)C)cc32)c(C)c1CCCN(C)C	11.2	
COc1ccc2c(c1)NC(=O)/C2=C\c1[nH]cc(CCC(=O)O)c1C	> 50	
Cc1cccc2c1/C(=C\c1[nH]c(C)c(CCC(=O)O)c1C)C(=O)N2	> 50	
Cc1[nH]c(/C=C2/C(=O)Nc3cc(-c4ccccc4)ccc32)c(C)c1CCCN1CCOCC1	> 50	> 100
Cc1[nH]c(/C=C2/C(=O)Nc3ccccc32)c(C)c1CCCN1CCOCC1	> 50	> 100
COc1ccc2c(c1)NC(=O)/C2=C\c1[nH]c(C)c(CCC(=O)O)c1C	> 50	
COc1cccc(-c2ccc3c(c2)NC(=O)/C3=C\c2[nH]c(C)c(CCCN3CCOCC3)c2C)c1	41.9	> 100
COc1ccc(-c2ccc3c(c2)NC(=O)/C3=C\c2[nH]c(C)c(CCCN3CCOCC3)c2C)cc1	> 50	> 100
COc1cccc(-c2ccc3c(c2)NC(=O)/C3=C\c2[nH]c(C)c(CCCN(C)C)c2C)c1	9.57	28.1
COC(=O)c1ccc2c(c1)/C(=C/c1[nH]cc(CCC(=O)O)c1C)C(=O)N2	> 50	
Cc1[nH]c(/C=C2/C(=O)Nc3ccc(Cl)cc32)c(C)c1CCCN(C)C	7.49	> 100
Cc1ccc2c(c1)/C(=C\c1[nH]cc(CCC(=O)O)c1C)C(=O)N2	> 50	
Cc1c(CCC(=O)O)c[nH]c1/C=C1/C(=O)Nc2ccccc21	> 50	
COc1ccccc1-c1ccc2c(c1)NC(=O)/C2=C\c1[nH]c(C)c(CCCN(C)C)c1C	9.56	22.8
Cc1[nH]c(/C=C2/C(=O)Nc3ccc(S(=O)(=O)N4CCOCC4)cc32)c(C)c1CCCN(C)C	29.8	
Cc1c(CCC(=O)O)c[nH]c1/C=C1/C(=O)Nc2ccc(Cl)cc21	12	
Cc1c(CCC(=O)O)c[nH]c1/C=C1/C(=O)Nc2ccc(Br)cc21	> 50	
Cc1c(CCC(=O)O)c[nH]c1/C=C1/C(=O)Nc2cc(-c3ccccc3)ccc21	30.5	
Cc1[nH]c(/C=C2/C(=O)Nc3cc(O)ccc32)c(C)c1CCC(=O)O	> 50	
COc1ccc(-c2ccc3c(c2)NC(=O)/C3=C\c2[nH]c(C)c(CCCN(C)C)c2C)cc1	3.86	> 100
Cc1c(CCC(=O)O)c[nH]c1/C=C1/C(=O)Nc2cc(Br)ccc21	> 50	
Cc1[nH]c(/C=C2/C(=O)Nc3ccc(S(N)(=O)=O)cc32)c(C)c1CCCN(C)C	6.59	
Cc1[nH]c(/C=C2/C(=O)Nc3cc(Cl)ccc32)c(C)c1CCCN(C)C	25.4	86.6
COc1ccc2c(c1)/C(=C/c1[nH]cc(CCC(=O)O)c1C)C(=O)N2	> 50	

Structure (SMILES)	IC50 (EGFR (human)) [µM]	IC50 (EGFR) [µM]
CCOc1cccc(-c2ccc3c(c2)NC(=O)/C3=C\c2[nH]c(C)c(CCC(=O)O)c2C)c1	24.7	
Cc1c(CCC(=O)O)c[nH]c1/C=C1/C(=O)Nc2ccc(I)cc21	> 50	
Cc1[nH]c(/C=C2/C(=O)Nc3ccc(Cl)cc32)c(C)c1CCC(=O)O	> 50	
COc1ccc2c(c1)NC(=O)/C2=C\c1[nH]c(C)c(CCCN(C)C)c1C	27.5	> 100
COc1ccc(-c2ccc3c(c2)NC(=O)/C3=C\c2[nH]c(C)c(CCC(=O)O)c2C)cc1	> 50	
Cc1[nH]c(/C=C2\C(=O)Nc3ccc(S(=O)(=O)NC(C)C)cc32)c(C)c1CCCN(C)C	8.38	
Cc1[nH]c(/C=C2/C(=O)Nc3ccccc32)c(C)c1CCCN(C)C	12.6	> 100
Cc1ccc2c(c1)/C(=C\c1[nH]c(C)c(CCCN(C)C)c1C)C(=O)N2	25.4	
Cc1[nH]c(/C=C2/C(=O)Nc3ccc(Br)cc32)c(C)c1CCC(=O)O	> 50	
COc1ccc2c(c1)/C(=C/c1[nH]c(C)c(CCCN(C)C)c1C)C(=O)N2	11	> 100
Cc1[nH]c(/C=C2/C(=O)Nc3ccc(Br)cc32)c(C)c1CCCN(C)C	4.1	> 100
CCc1ccc2c(c1)/C(=C/c1[nH]cc(CCC(=O)O)c1C)C(=O)N2	> 50	
Cc1cccc2c1/C(=C\c1[nH]cc(CCC(=O)O)c1C)C(=O)N2	> 50	
Cc1cccc2c1/C(=C\c1[nH]c(C)c(CCCN(C)C)c1C)C(=O)N2	20.2	
COc1cc2c(cc1OC)/C(=C/c1[nH]cc(CCC(=O)O)c1C)C(=O)N2	> 50	
Cc1ccc2c(c1)/C(=C\c1[nH]c(C)c(CCC(=O)O)c1C)C(=O)N2	> 50	
COc1ccccc1-c1ccc2c(c1)NC(=O)/C2=C\c1[nH]c(C)c(CCCN2CCOCC2)c1C	3.9	> 100
Cc1[nH]c(/C=C2/C(=O)Nc3cc(-c4ccccc4)ccc32)c(C)c1CCCN(C)C	4	> 100
Cc1c(CCC(=O)O)c[nH]c1/C=C1/C(=O)Nc2cc(Cl)ccc21	> 50	
Cc1[nH]c(/C=C2/C(=O)Nc3cccc(CCO)c32)c(C)c1CCCN(C)C	25.3	
Cc1[nH]c(/C=C2/C(=O)Nc3cc(-c4ccccc4)ccc32)c(C)c1CCC(=O)O	32.7	
COc1cccc(-c2ccc3c(c2)NC(=O)/C3=C\c2[nH]cc(CCC(=O)O)c2C)c1	30.6	
Cc1[nH]c(/C=C2/C(=O)Nc3ccc(I)cc32)c(C)c1CCC(=O)O	> 50	
Cc1[nH]c(/C=C2/C(=O)Nc3ccc(Br)cc32)c(C)c1CCCN1CCOCC1	44.6	> 100
CCOc1cccc(-c2ccc3c(c2)NC(=O)/C3=C\c2[nH]cc(CCC(=O)O)c2C)c1	37.2	
